Data taken from patent US20070275382A1, “Biomarkers for the Efficacy of Somatostatin Analogue Treatment” (priority 2003, published 2007).
*1 amine or outer side, *2 acyl side, *3 side chain or, on linkers, in order; H or OH if unused. Where a SMILES comes first, the peptide text is derived from it. Side-chain parts run from the residue outwards. [ ]: non-standard residue; d: D form. The star is where a group is joined. Ethylenediamine = C(CN[*:2])N[*:1]; Hyp = O=C(O)[CH]1C[CH](O)CN1; Phg = N[CH](C(=O)O)c1ccccc1; CO = O=C([*:1])[*:2]; Bn = c1ccc(C*)cc1

Assays:
[1] = test system: Spleen; experiment: Microarray gene expression profiling (HG-U95A), spleen; assay type: in vivo, cynomolgus monkeys
Method: (§1) Origin of tissue and processing. Male and female cynomolgus monkeys received subcutaneously pasireotide (100 μg/animal/day) or the vehicle for 14 days. On day 15, all animals were sacrificed and tissues for RNA extraction were immediately snap-frozen and kept at −80° C. until processing.
(§2) RNA expression profiling was conducted by means of the HG-U95A gene expression probe array (Affymetrix; Santa Clara, Calif. USA), containing more than 12,600 probe sets interrogating primarily full-length human genes and also some control probe sets. The experiment was conducted according to the recommendations of the manufacturer. Briefly, total RNA was obtained by acid guanidinium thiocyanate-phenol-chloroform extraction (Trizol®, Invitrogen Life Technologies, San Diego, Calif. USA) from each frozen tissue section. The total RNA was then purified on an affinity resin (Rneasy®, Qiagen) and quantified. Double stranded cDNA was synthesized with a starting amount of approximately 5 μg full-length total RNA using the Superscript® Choice System (Invitrogen Life Technologies, Carlsbad, Calif. USA) in the presence of a T7-(dT)24 DNA oligonucleotide primer. Following synthesis, the cDNA was purified by phenol/chloroform/isoamyl alcohol extraction and ethanol precipitation. The purified cDNA was then transcribed in vitro using the BioArray® High Yield RNA Transcript Labeling Kit (ENZO, Farmingdale, N.Y. USA) in the presence of biotinylated ribonucleotides form biotin labelled cRNA. The labelled cRNA was then purified on an affinity resin (Rneasy®, Qiagen), quantified and fragmented. An amount of approximately 10 μg labelled cRNA was hybridized for 16 hours at 45° C. to an expression probe array. The array was then washed and stained twice with streptavidin-phycoerythrin (Molecular Probes,) using the GeneChip® Fluidics Workstation 400 (Affymetrix, Santa Clara, Calif. USA). The array was then scanned twice using a confocal laser scanner (GeneArray® Scanner, Agilent, Palo Alto, Calif. USA) resulting in one scanned image. This resulting “.dat-file” was processed using the MAS4 program (Affymetrix) into a “.cel-file”. The “.cel file” was captured and loaded into the Affymetrix GeneChip® Laboratory Information Management System (LIMS). The LIMS database is connected to a UNIX Sun Solaris server through a network filing system that allows for the average intensities for all probes cells (CEL file) to be downloaded into an Oracle database (NPGN). Raw data was converted to expression levels using a “target intensity” of 150. The data were evaluated for quality control and loaded in the GeneSpring® software 4.2.4 (Silicon Genetics, Calif. USA) for analysis.
(§3) On the human Affymetrix HGU95Av2 chip, probe sets for individual genes contain 20 oligonucleotide pairs, each composed of a “perfect match” 25-mer and a “mismatch” 25-mer differing from the “perfect” match oligonucleotide at a single base. After probe labelling, hybridization, and laser scanning, the expression level was estimated by averaging the differences in signal intensity measured by oligonucleotide pairs of a given probe (AvgDiff value). The fold changes and directions were calculated for selected genes, from the differences of the AvgDiff values between controls and treated.
(§4) To identify genes that were impacted by pasireotide, the dataset was initially filtered to exclude in a first wave of analysis, genes whose values were systematically in the lower expression ranges where the experimental noise is high (at least 80 in a number of experiments corresponding to the smallest number of replicas of any experimental point). In a second round of selection a threshold p-value of 0.05 (based on a t-test) identified differences between treated and control based on a two component error model (Global Error Model) and, whenever possible, with a stepdown correction for multi-hypothesis testing (Benjamini and Hochberg false discovery rate). […]

[2] = test system: Pancreas; experiment: Microarray gene expression profiling (HG-U95A), pancreas; assay type: in vivo, cynomolgus monkeys
Method: as §1, §2, §3, §4

[3] = ↑ increase, treated vs controls
[4] = ↓ decrease, treated vs controls
[5] = ↑ vs control, 100 μg/animal/day s.c., 14 days
[6] = ↓ vs control, 100 μg/animal/day s.c., 14 days

## NCCCCC1NC(=O)C(Cc2c[nH]c3ccccc23)NC(=O)C(c2ccccc2)NC(=O)C2CC(OC(=O)NCCN)CN2C(=O)C(Cc2ccccc2)NC(=O)C(Cc2ccc(OCc3ccccc3)cc2)NC1=O (stereo not drawn) [Pasireotide, cyclo[4-(NH2—C2H4—NH—CO—O)Pro-Phg-DTrp-Lys-Tyr(4-Bzl)-Phe]] (cyclo(F[Hyp]([CO-Ethylenediamine])[Phg]WKY(Bn)); configuration not given here)
[1]; 0.1 mg/animal/14day
  IGF-1 expression level, AvgDiff (range): 85 (52 to 125)
  IGFBP6 expression level, AvgDiff (range): 1,043 (853 to 1,155)
  SSTR2 expression level, AvgDiff (range): 93 (87 to 95)
[1]; [3]
  ATPase, Na+/K+ transporting, β 1 polypeptide RNA expression fold change: polypeptide ↑ x2.5
  Arginine vasopressin receptor 1B RNA expression fold change: receptor 1B ↑ x2
  Bcl-2 binding component 3 RNA expression fold change: ↑ x2.5
  Ca++ channel, voltage-dependent, α 2/δ subunit 1 RNA expression fold change: subunit 1 ↑ x2
  Ca++ channel, voltage-dependent, α 2/δ subunit 2 RNA expression fold change: ↑ x1.5
  Calcium/calmodulin-dependent protein kinase (CaM kinase) II β RNA expression fold change: II β ↑ x2
  Calmodulin 1 (phosphorylase kinase, δ) RNA expression fold change: kinase, δ) ↑ x2
  Calmodulin 2 (phosphorylase kinase, δ) RNA expression fold change: kinase, δ) ↑ x1.5
  Caspase 8, apoptosis-related cysteine protease RNA expression fold change: ↑ x2.5
  Cdk 2 RNA expression fold change: Cdk 2 ↑ x1.5
  Cdk 5, regulatory subunit 1 (p35) RNA expression fold change: ↑ x2
  Cdk 6 RNA expression fold change: Cdk 6 ↑ x3
  Cyclin D2 RNA expression fold change: Cyclin D2 ↑ x1.5
  Death-associated protein RNA expression fold change: ↑ x1.5
  Follistatin-like 1 RNA expression fold change: ↑ x1.5
  Gastric inhibitory polypeptide receptor RNA expression fold change: receptor ↑ x2
  HGF activator inhibitor precursor RNA expression fold change: ↑ x1.5
  IFN regulatory factor 2 RNA expression fold change: factor 2 ↑ x3.5
  IFN-inducible RNA-dependent protein kinase RNA expression fold change: ↑ x2.5
  IFNγ receptor 2 (IFNγ transducer 1) RNA expression fold change: ↑ x1.5
  IFNγ responsive transcript RNA expression fold change: ↑ x2
  IGF-1 RNA expression fold change: IGF-1 ↑ x1.5
  IGFBP6 RNA expression fold change: IGFBP6 ↑ x2.5
  IL 1 receptor-like 1 RNA expression fold change: ↑ x2
  IL-8 receptor type B RNA expression fold change: ↑ x1.5
  IP-4-phosphatase, type 1, isoform b RNA expression fold change: ↑ x2
  K+ large conductance Ca++-activated channel, subfamily M, β member 1 RNA expression fold change: ↑ x2.5
  LTb4 (chemokine receptor-like 1) RNA expression fold change: receptor-like 1) ↑ x3
  PDGF, α polypeptide RNA expression fold change: polypeptide ↑ x2.5
  PDGFR, α polypeptide RNA expression fold change: polypeptide ↑ x1.5
  PI-3-kinase, class 2, β polypeptide RNA expression fold change: ↑ x1.5
  PI-3-kinase, class 3 RNA expression fold change: class 3 ↑ x2
  PKC, α binding protein RNA expression fold change: protein ↑ x2
  PLA2 RNA expression fold change: PLA2 ↑ x2
  Phosphatidylinositol glycan, class B RNA expression fold change: ↑ x1.5
  Programmed cell death 10 RNA expression fold change: death 10 ↑ x1.5
  Putative chemokine receptor; GTP-binding protein RNA expression fold change: binding protein ↑ x2.5
  Rb binding protein RNA expression fold change: protein ↑ x2
  Rb-binding protein 8 RNA expression fold change: protein 8 ↑ x1.5
  S-phase kinase-associated protein 1A (p19A) RNA expression fold change: 1A (p19A) ↑ x2
  SSTR2 RNA expression fold change: SSTR2 ↑ x2
  Solute carrier family 9 (Na+/H+ exchanger) isoform 3 regulatory factor 1 RNA expression fold change: ↑ x10.5
  TGF induced protein RNA expression fold change: protein ↑ x1.5
  TNF (cachectin) RNA expression fold change: ↑ x2
  TNFR superfamily, member 12 RNA expression fold change: member 12 ↑ x1.5
  Tumour protein p53-binding protein RNA expression fold change: protein ↑ x1.5
  VEGF RNA expression fold change: VEGF ↑ x1.5
  Vasodilatator-stimulated phosphoprotein RNA expression fold change: phosphoprotein ↑ x2
  β adrenergic receptor kinase 1 RNA expression fold change: kinase 1 ↑ x3
[1]; ↑ increase, treated vs controls, second listing, without (p19A)
  S-phase kinase-associated protein 1A RNA expression fold change: 1A ↑ x2
[1]; [4]
  Adrenergic, α-2C-, receptor RNA expression fold change: ↓ x2
  Cyclin I RNA expression fold change: Cyclin I ↓ x1.5
  Dopamine receptor D4 RNA expression fold change: receptor D4 ↓ x2
  EGF (β-urogastrone) RNA expression fold change: urogastrone) ↓ x2
  K+ voltage-gated channel, shaker-related subfamily, member 3 RNA expression fold change: member 3 ↓ x3
  Nuclear factor of activated T-cells, cytoplasmic, calcineurin-dependent 1 RNA expression fold change: dependent 1 ↓ x5
  PI-3-kinase, catalytic, α polypeptide RNA expression fold change: polypeptide ↓ x2.5
  PTHR 1 RNA expression fold change: PTHR 1 ↓ x2.5
  TGFβ receptor III (betaglycan, 300 kD) RNA expression fold change: 300 kD) ↓ x1.5
[2]; 0.1 mg/animal/14day
  IGF-1 expression level, AvgDiff (range): 89 (20 to 298)
  SSTR2 expression level, AvgDiff (range): 156 (120 to 210)
[2]; [5]
  Cdki 1C transcript fold change: Cdki 1C ↑ x2
  Chymotrypsin-like transcript fold change: ↑ x3.5
  Cyclin D1 transcript fold change: Cyclin D1 ↑ x2
  GLUR precursor, flip isoform transcript fold change: flip isoform ↑ x3
  IFN regulatory factor 3 transcript fold change: factor 3 ↑ x5
  IGF-1 transcript fold change: IGF-1 ↑ x4.5
  IP-1-phosphatase transcript fold change: ↑ x2.5
  Integrin α 2b precursor transcript fold change: precursor ↑ x1.5
  Na+ channel, voltage-gated, type 1, β polypeptide transcript fold change: ↑ x2
  PDGFR α transcript fold change: PDGFR α ↑ x2.5
  PDGFR, α polypeptide transcript fold change: ↑ x1.5
  PI-4-kinase, catalytic, α polypeptide transcript fold change: α polypeptide ↑ x1.5
  PL A2, group IVC (cytosolic, calcium-independent) transcript fold change: independent) ↑ x1.5
  Prostacyclin synthase transcript fold change: synthase ↑ x2
  THR interactor 10 transcript fold change: ↑ x2.5
  Thrombospondin 2 transcript fold change: ↑ x3.5
[2]; [6]
  BCL2/adenovirus E1B 19 kD-intracting protein 1, isoform BNIP1-a transcript fold change: BNIP1-a ↓ x1.5
  CRHR 1 transcript fold change: CRHR 1 ↓ x2
  Ca++ channel, voltage dependent, α 1F subunit transcript fold change: ↓ x4.5
  Cyclin T2 transcript fold change: Cyclin T2 ↓ x2
  G-CSF protein transcript fold change: ↓ x2
  Gastrin-releasing peptide receptor transcript fold change: ↓ x5
  IL 1 receptor antagonist transcript fold change: antagonist↓ x2
  K+ voltage-gated channel, KQT-like subfamily, member3 transcript fold change: ↓ x2.5
  Neuro-blastoma apoptosis-related RNA binding protein transcript fold change: protein ↓ x3
  Phosphotyrosine independent ligand p62B for the Lck SH2 domain B-cell isoform transcript fold change: isoform ↓ x2
  Smad 3 transcript fold change: Smad 3 ↓ x1.5
  THR binding protein transcript fold change: protein ↓ x2
